Legend:
[1] = xn = mol fraction of the nth substance listed; conditions: 101 kPa, Liquid; for speed of sound: Pulse-echo method
[2] = refractive index (Na D-line) (dimensionless); xn = mol fraction of the nth substance listed; conditions: 101 kPa, Liquid, Standard Abbe refractometry

Cc1ccccc1Cl [2-chlorotoluene] + CCCCCCCCCCO
Conditions | mass density, [1] [kg/m3] | refractive index, [2] | speed of sound, [1] [m/s] | viscosity, [1] [mPa·s]
298.15 K, x1 = 0.0734 | 838.4 | 1.4377 | 1373.9 | 10
298.15 K, x1 = 0.1537 | 852.15 | 1.4413 | 1366.5 | 8.277
298.15 K, x1 = 0.2064 | 861.61 | 1.444 | 1361.3 | 7.283
298.15 K, x1 = 0.2747 | 874.4 | 1.4479 | 1354.2 | 6.13
298.15 K, x1 = 0.345 | 888.32 | 1.4524 | 1346.6 | 5.101
298.15 K, x1 = 0.4107 | 902.06 | 1.4569 | 1339.4 | 4.289
298.15 K, x1 = 0.489 | 919.52 | 1.4628 | 1330.9 | 3.477
298.15 K, x1 = 0.5555 | 935.39 | 1.4685 | 1323.8 | 2.906
298.15 K, x1 = 0.6158 | 950.72 | 1.4741 | 1317.6 | 2.468
298.15 K, x1 = 0.6813 | 968.52 | 1.4806 | 1311.5 | 2.075
298.15 K, x1 = 0.7475 | 987.82 | 1.4878 | 1306 | 1.742
298.15 K, x1 = 0.8205 | 1010.87 | 1.4966 | 1301.2 | 1.446
298.15 K, x1 = 0.884 | 1032.61 | 1.505 | 1298.7 | 1.235
298.15 K, x1 = 0.9469 | 1056.04 | 1.514 | 1298.5 | 1.062
298.15 K, x1 = 1 | 1077.41 | 1.5219 | 1301.2 | 0.943
303.15 K, x1 = 0.0734 | 834.73 | 1.4359 | 1358.4 | 8.289
303.15 K, x1 = 0.1537 | 848.3 | 1.4394 | 1350.5 | 6.862
303.15 K, x1 = 0.2064 | 857.65 | 1.4423 | 1344.9 | 6.042
303.15 K, x1 = 0.2747 | 870.31 | 1.4462 | 1337.3 | 5.103
303.15 K, x1 = 0.345 | 884.08 | 1.4505 | 1329.3 | 4.266
303.15 K, x1 = 0.4107 | 897.72 | 1.4549 | 1321.7 | 3.603
303.15 K, x1 = 0.489 | 915.05 | 1.4608 | 1312.7 | 2.952
303.15 K, x1 = 0.5555 | 930.83 | 1.4664 | 1305.2 | 2.486
303.15 K, x1 = 0.6158 | 946.09 | 1.4719 | 1298.8 | 2.133
303.15 K, x1 = 0.6813 | 963.84 | 1.4784 | 1292.5 | 1.806
303.15 K, x1 = 0.7475 | 983.1 | 1.4855 | 1286.9 | 1.538
303.15 K, x1 = 0.8205 | 1006.13 | 1.4941 | 1282.3 | 1.294
303.15 K, x1 = 0.884 | 1027.9 | 1.5023 | 1280 | 1.124
303.15 K, x1 = 0.9469 | 1051.38 | 1.5111 | 1280.6 | 0.984
303.15 K, x1 = 1 | 1072.83 | 1.5189 | 1284.1 | 0.885
308.15 K, x1 = 0.0734 | 831.1 | 1.4339 | 1339.3 | 6.889
308.15 K, x1 = 0.1537 | 844.55 | 1.4378 | 1330.9 | 5.734
308.15 K, x1 = 0.2064 | 853.84 | 1.4406 | 1324.9 | 5.078
308.15 K, x1 = 0.2747 | 866.4 | 1.4445 | 1316.8 | 4.313
308.15 K, x1 = 0.345 | 880.08 | 1.4489 | 1308.2 | 3.637
308.15 K, x1 = 0.4107 | 893.62 | 1.4534 | 1300 | 3.08
308.15 K, x1 = 0.489 | 910.82 | 1.4592 | 1290.6 | 2.528
308.15 K, x1 = 0.5555 | 926.51 | 1.4648 | 1283.1 | 2.134
308.15 K, x1 = 0.6158 | 941.68 | 1.4702 | 1276.7 | 1.837
308.15 K, x1 = 0.6813 | 959.32 | 1.4767 | 1270.8 | 1.566
308.15 K, x1 = 0.7475 | 978.5 | 1.4839 | 1266.1 | 1.338
308.15 K, x1 = 0.8205 | 1001.49 | 1.4924 | 1262.5 | 1.135
308.15 K, x1 = 0.884 | 1023.23 | 1.5005 | 1261.6 | 0.995
308.15 K, x1 = 0.9469 | 1046.71 | 1.5092 | 1262.2 | 0.879
308.15 K, x1 = 1 | 1068.24 | 1.5169 | 1266.1 | 0.805

Cc1ccc(Cl)cc1 [4-chlorotoluene] + CCCCCCCCCCO
Conditions | mass density, [1] [kg/m3] | refractive index, [2] | speed of sound, [1] [m/s] | viscosity, [1] [mPa·s]
298.15 K, x1 = 0.0718 | 837.82 | 1.4376 | 1373.1 | 9.725
298.15 K, x1 = 0.1353 | 848.32 | 1.4405 | 1366.4 | 8.154
298.15 K, x1 = 0.1976 | 859.01 | 1.4437 | 1359.4 | 6.842
298.15 K, x1 = 0.2703 | 872.09 | 1.4477 | 1350.9 | 5.561
298.15 K, x1 = 0.341 | 885.46 | 1.4519 | 1342.3 | 4.546
298.15 K, x1 = 0.4103 | 899.31 | 1.4566 | 1333.9 | 3.733
298.15 K, x1 = 0.482 | 914.52 | 1.4618 | 1325 | 3.045
298.15 K, x1 = 0.5531 | 930.57 | 1.4676 | 1316.5 | 2.495
298.15 K, x1 = 0.6234 | 947.55 | 1.4738 | 1308.6 | 2.058
298.15 K, x1 = 0.7045 | 968.72 | 1.4818 | 1300.2 | 1.654
298.15 K, x1 = 0.7497 | 981.35 | 1.4866 | 1296.1 | 1.472
298.15 K, x1 = 0.8196 | 1002.21 | 1.4947 | 1291 | 1.239
298.15 K, x1 = 0.8907 | 1025.23 | 1.5035 | 1288 | 1.047
298.15 K, x1 = 0.9556 | 1048.23 | 1.5124 | 1287.5 | 0.907
298.15 K, x1 = 1 | 1065.11 | 1.5188 | 1289.1 | 0.828
303.15 K, x1 = 0.0718 | 834.11 | 1.4357 | 1357.3 | 8.053
303.15 K, x1 = 0.1353 | 844.43 | 1.4387 | 1350.1 | 6.766
303.15 K, x1 = 0.1976 | 854.95 | 1.4418 | 1342.7 | 5.705
303.15 K, x1 = 0.2703 | 867.83 | 1.4458 | 1333.7 | 4.658
303.15 K, x1 = 0.341 | 881.03 | 1.4501 | 1324.7 | 3.825
303.15 K, x1 = 0.4103 | 894.71 | 1.4547 | 1315.9 | 3.162
303.15 K, x1 = 0.482 | 909.75 | 1.46 | 1307 | 2.608
303.15 K, x1 = 0.5531 | 925.66 | 1.4657 | 1298.4 | 2.157
303.15 K, x1 = 0.6234 | 942.5 | 1.4719 | 1290.5 | 1.798
303.15 K, x1 = 0.7045 | 963.53 | 1.4798 | 1282.3 | 1.472
303.15 K, x1 = 0.7497 | 976.09 | 1.4846 | 1278.3 | 1.325
303.15 K, x1 = 0.8196 | 996.85 | 1.4926 | 1273 | 1.134
303.15 K, x1 = 0.8907 | 1019.78 | 1.5015 | 1269.5 | 0.972
303.15 K, x1 = 0.9556 | 1042.69 | 1.5104 | 1269.1 | 0.85
303.15 K, x1 = 1 | 1059.51 | 1.5166 | 1271 | 0.784
308.15 K, x1 = 0.0718 | 830.35 | 1.4337 | 1338.2 | 6.713
308.15 K, x1 = 0.1353 | 840.48 | 1.4367 | 1330.8 | 5.652
308.15 K, x1 = 0.1976 | 850.84 | 1.4398 | 1323.1 | 4.769
308.15 K, x1 = 0.2703 | 863.56 | 1.4439 | 1313.8 | 3.909
308.15 K, x1 = 0.341 | 876.62 | 1.4481 | 1304.8 | 3.23
308.15 K, x1 = 0.4103 | 890.19 | 1.4527 | 1295.9 | 2.678
308.15 K, x1 = 0.482 | 905.12 | 1.458 | 1286.9 | 2.224
308.15 K, x1 = 0.5531 | 920.91 | 1.4637 | 1278.3 | 1.851
308.15 K, x1 = 0.6234 | 937.62 | 1.4698 | 1270.5 | 1.558
308.15 K, x1 = 0.7045 | 958.46 | 1.4776 | 1262.5 | 1.289
308.15 K, x1 = 0.7497 | 970.92 | 1.4824 | 1258.5 | 1.166
308.15 K, x1 = 0.8196 | 991.5 | 1.4902 | 1253.9 | 1.008
308.15 K, x1 = 0.8907 | 1014.28 | 1.499 | 1250.7 | 0.875
308.15 K, x1 = 0.9556 | 1037.1 | 1.5078 | 1251 | 0.781
308.15 K, x1 = 1 | 1053.9 | 1.5138 | 1253.1 | 0.73

— the NIST ThermoML archive (doi:10.1007/s10765-011-0995-x)
